Measurements taken from ChEMBL document CHEMBL5661943, “ASAP - In vitro antiviral effect” (2024).

Key:
[1] = system: Zika virus; assay: EC50 is reported via analysis of immunofluorescence staining. The assay has been performed by Icahn School of Medicine at Mount Sinai.; format: functional, organism-based, Chlorocebus sabaeus, VeroE6/TMPRSS2; conditions: Baseline response 0 %, P-gp concentration 2 uM, P-gp inhibitor Elacidar
[2] = system: dengue virus type 2; assay: Functional immunofluorescence assay to measure dose dependent changes in antiviral-drug inhibitory efficacy against Dengue virus type 2 Thailand/16681/84 in Vero E6/TMPRSS2 cells (cotreated with P-gp inhibitor, Elacridar). Cells are treated with antiviral candidates that are serially diluted, following infection, cells are fixed. EC50 is reported via analysis of immunofluorescence staining. The assay has been performed by Icahn School of Medicine at Mount Sinai.; format: organism-based, Chlorocebus sabaeus, VeroE6/TMPRSS2; conditions: Baseline response 0 %, Maximum response 100 %, P-gp concentration 2 uM, P-gp inhibitor Elacidar
[3] = system: Zika virus; assay: Functional CPE-based assay to measure dose dependent changes in antiviral-drug inhibitory efficacy against Zika virus MR766 in Vero E6 miRFP670 cells. Cells are treated with antiviral candidates that are serially diluted. EC50 is reported via analysis of MTS assay as a readout of CPE. The assay has been performed by KU Leuven.; format: organism-based, Chlorocebus sabaeus, Vero C1008; conditions: for EC90: Baseline response 0 %, Maximum response 100 %
[4] = system: Zika virus; assay: Functional CPE-based assay to measure dose dependent changes in antiviral-drug inhibitory efficacy against Zika virus MR766 in Vero E6 miRFP670 cells (cotreated with P-gp inhibitor, CP100356). Cells are treated with antiviral candidates that are serially diluted. EC50 is reported via analysis of MTS assay as a readout of CPE. The assay has been performed by KU Leuven.; format: organism-based, Chlorocebus sabaeus, Vero C1008; conditions: Baseline response 0 %, Maximum response 100 %, P-gp concentration 500 nM, P-gp inhibitor CP100356
[5] = system: dengue virus type 2; assay: Functional assay to measure dose dependent changes in antiviral-drug inhibitory efficacy against Dengue virus type 2 New Guinea C in Vero E6 miRFP670 cells (cotreated with P-gp inhibitor, CP100356). Cells are treated with antiviral candidates that are serially diluted, following infection, cells are fixed. EC50 is reported via analysis of fluorescence intensity using high-content imager. The …; format: organism-based, Chlorocebus sabaeus, Vero C1008; conditions: Baseline response 0 %, Maximum response 100 %, P-gp concentration 500 nM, P-gp inhibitor CP100356

C#C[C@@]1(O)[C@H](O)[C@@H](CO)O[C@H]1n1ccc2c(N)ncnc21
EC90 ([1]; EC90 CI (lower) 0.001 uM, EC90 CI (upper) 0.006 uM, Hill slope -0.989, Maximum measured 96.238 %, Maximum response 100 %, Minimum measured 0.519 %, R squared 0.897): 224 nM
EC90 ([1]; EC90 CI (lower) 0.002 uM, EC90 CI (upper) 0.011 uM, Hill slope -0.683, Maximum measured 98.748 %, Maximum response 100 %, Minimum measured 0.794 %, R squared 0.927): 2880 nM
EC90 ([1]; EC90 CI (lower) 0.002 uM, EC90 CI (upper) 0.016 uM, Hill slope -0.839, Maximum measured 81.893 %, Maximum response 100 %, Minimum measured 1.248 %, R squared 0.884): 1180 nM
EC90 ([1]; EC90 CI (lower) 0.007 uM, EC90 CI (upper) 0.18 uM, Hill slope -1.662, Maximum measured 169.951 %, Maximum response 100 %, Minimum measured 5.93 %, R squared 0.731): 510 nM
EC90 ([1]; EC90 CI (lower) 0.03 uM, EC90 CI (upper) 0.119 uM, Hill slope -3.091, Maximum measured 117.52 %, Maximum response 100 %, Minimum measured 1.1 %, R squared 0.948): 247 nM
EC90 ([1]; EC90 CI (lower) 0.051 uM, EC90 CI (upper) 0.519 uM, Hill slope -4.939, Maximum measured 48.685 %, Maximum response 50 %, Minimum measured […], R squared 0.852): 395 nM
EC90 ([1]; EC90 CI (lower) 0.102 uM, EC90 CI (upper) 0.325 uM, Hill slope -1.64, Maximum measured 123.086 %, Maximum response 100 %, Minimum measured 10.677 %, R squared 0.94): 2650 nM
EC90 ([1]; Hill slope -0.492, Maximum measured 74.448 %, Maximum response 100 %, Minimum measured 1.207 %, R squared 0.744): > 10000 nM
EC90 ([2]; EC90 CI (lower) 0.185 uM, EC90 CI (upper) 0.987 uM, Hill slope -1.843, Maximum measured 114.823 %, Minimum measured 1.4 %, R squared 0.854): 4.64 µM
EC90 ([2]; EC90 CI (lower) […] uM, EC90 CI (upper) 0.029 uM, Hill slope -0.795, Maximum measured 131.547 %, Minimum measured 0.898 %, R squared 0.782): 1.45 µM
EC90 ([2]; EC90 CI (lower) […] uM, EC90 CI (upper) 0.107 uM, Hill slope -1.582, Maximum measured 108.655 %, Minimum measured 1.401 %, R squared 0.84): 0.595 µM
EC90 ([2]; EC90 CI (lower) […] uM, EC90 CI (upper) 0.213 uM, Hill slope -0.879, Maximum measured 109.405 %, Minimum measured 0.502 %, R squared 0.793): 8.04 µM
EC90 ([3]; EC90 CI (lower) 0.609 uM, EC90 CI (upper) 2.047 uM, Hill slope 2.369, Maximum measured 114.788 %, Minimum measured 45.711 %, R squared 0.779): 1120 nM
EC90 ([3]; EC90 CI (lower) 0.671 uM, EC90 CI (upper) 2.798 uM, Hill slope 1.934, Maximum measured 102.059 %, Minimum measured 46.421 %, R squared 0.63): 1370 nM
EC90 ([3]; EC90 CI (lower) 0.837 uM, EC90 CI (upper) 2.594 uM, Hill slope 2.016, Maximum measured 108.843 %, Minimum measured 40.384 %, R squared 0.792): 1470 nM
EC90 ([3]; EC90 CI (lower) 0.846 uM, EC90 CI (upper) 2.023 uM, Hill slope 2.239, Maximum measured 110.829 %, Minimum measured 40.755 %, R squared 0.884): 1310 nM
EC90 ([3]; EC90 CI (lower) 0.889 uM, EC90 CI (upper) 2.697 uM, Hill slope 2.299, Maximum measured 106.469 %, Minimum measured 29.185 %, R squared 0.791): 1550 nM
EC90 ([3]; EC90 CI (lower) 1.189 uM, EC90 CI (upper) 2.428 uM, Hill slope 2.067, Maximum measured 109.57 %, Minimum measured 34.796 %, R squared 0.858): 1700 nM
EC90 ([3]; EC90 CI (lower) 1.447 uM, EC90 CI (upper) 5.92 uM, Hill slope 1.376, Maximum measured 98.736 %, Minimum measured 36.6 %, R squared 0.773): 2930 nM
EC90 ([3]; EC90 CI (lower) 2.603 uM, EC90 CI (upper) 13.676 uM, Hill slope 1.372, Maximum measured 98.49 %, Minimum measured 18.919 %, R squared 0.79): 5970 nM
EC50 ([3]; vero c1008): 587 nM [middle of 8 runs]
EC90 ([4]; EC90 CI (lower) 0.21 uM, EC90 CI (upper) 1.971 uM, Hill slope 4.843, Maximum measured 127.846 %, Minimum measured 44.624 %, R squared 0.529): 644 nM
EC90 ([4]; EC90 CI (lower) 0.347 uM, EC90 CI (upper) 1.935 uM, Hill slope 4.005, Maximum measured 138.155 %, Minimum measured 32.327 %, R squared 0.565): 819 nM
EC90 ([4]; EC90 CI (lower) 0.485 uM, EC90 CI (upper) 1.678 uM, Hill slope 2.708, Maximum measured 115.594 %, Minimum measured 50.299 %, R squared 0.731): 902 nM
EC90 ([4]; EC90 CI (lower) 0.573 uM, EC90 CI (upper) 1.709 uM, Hill slope 2.773, Maximum measured 114.82 %, Minimum measured 43.135 %, R squared 0.56): 990 nM
EC90 ([4]; EC90 CI (lower) 0.644 uM, EC90 CI (upper) 1.624 uM, Hill slope 2.782, Maximum measured 120.433 %, Minimum measured 40.681 %, R squared 0.677): 1020 nM
EC90 ([4]; EC90 CI (lower) 0.736 uM, EC90 CI (upper) 2.012 uM, Hill slope 2.837, Maximum measured 119.107 %, Minimum measured 28.833 %, R squared 0.835): 1220 nM
EC90 ([4]; EC90 CI (lower) 0.778 uM, EC90 CI (upper) 1.421 uM, Hill slope 2.877, Maximum measured 117.074 %, Minimum measured 36.973 %, R squared 0.767): 1050 nM
EC90 ([4]; EC90 CI (lower) 1.744 uM, EC90 CI (upper) 2.505 uM, Hill slope 3.857, Maximum measured 108.608 %, Minimum measured 1.409 %, R squared 0.98): 2090 nM
EC90 ([4]; Hill slope -0.24, Maximum measured 59.299 %, Minimum measured 14.65 %, R squared 0.03): < 391 nM
EC90 ([5]; EC90 CI (lower) 0.063 uM, EC90 CI (upper) 0.198 uM, Hill slope -1.33, Maximum measured 59.85 %, Minimum measured 0.021 %, R squared 0.933): 3.05 µM
EC90 ([5]; EC90 CI (lower) 0.096 uM, EC90 CI (upper) 0.332 uM, Hill slope -1.394, Maximum measured 69.235 %, Minimum measured 0.073 %, R squared 0.818): 4.17 µM
EC90 ([5]; EC90 CI (lower) 0.135 uM, EC90 CI (upper) 0.222 uM, Hill slope -1.408, Maximum measured 67.754 %, Minimum measured 0.12 %, R squared 0.962): 3.93 µM
EC90 ([5]; EC90 CI (lower) 0.182 uM, EC90 CI (upper) 0.848 uM, Hill slope -1.407, Maximum measured 79.293 %, Minimum measured 0.097 %, R squared 0.879): 8.93 µM
EC90 ([5]; EC90 CI (lower) 0.301 uM, EC90 CI (upper) 0.481 uM, Hill slope -1.99, Maximum measured 82.418 %, Minimum measured 0.182 %, R squared 0.957): 3.46 µM
EC90 ([5]; EC90 CI (lower) 0.335 uM, EC90 CI (upper) 2.73 uM, Hill slope -2.159, Maximum measured 105.079 %, Minimum measured 6.932 %, R squared 0.477): 7.32 µM
EC90 ([5]; EC90 CI (lower) 0.344 uM, EC90 CI (upper) 0.572 uM, Hill slope -2.092, Maximum measured 82.86 %, Minimum measured 0.014 %, R squared 0.949): 3.62 µM
EC90 ([5]; EC90 CI (lower) 0.345 uM, EC90 CI (upper) 0.574 uM, Hill slope -1.668, Maximum measured 91.855 %, Minimum measured 0.191 %, R squared 0.984): 6.21 µM
EC90 ([5]; EC90 CI (lower) 0.345 uM, EC90 CI (upper) 1.174 uM, Hill slope -1.957, Maximum measured 94.468 %, Minimum measured 0.047 %, R squared 0.91): 6.02 µM
EC90 ([5]; EC90 CI (lower) 0.37 uM, EC90 CI (upper) 0.571 uM, Hill slope -1.792, Maximum measured 85.803 %, Minimum measured 0.04 %, R squared 0.97): 5.34 µM
EC90 ([5]; EC90 CI (lower) 0.614 uM, EC90 CI (upper) 2.492 uM, Hill slope -4.433, Maximum measured 159.506 %, Minimum measured 0.037 %, R squared 0.838): 3.33 µM
EC90 ([5]; EC90 CI (lower) 0.95 uM, EC90 CI (upper) 1.728 uM, Hill slope -2.215, Maximum measured 94.435 %, Minimum measured 0.459 %, R squared 0.976): 9.32 µM
EC90 ([5]; EC90 CI (lower) 1.094 uM, EC90 CI (upper) 1.586 uM, Hill slope -2.299, Maximum measured 103.071 %, Minimum measured 0.093 %, R squared 0.991): 8.91 µM
EC90 ([5]; EC90 CI (lower) 1.321 uM, EC90 CI (upper) 1.732 uM, Hill slope -3.141, Maximum measured 106.546 %, Minimum measured 0.058 %, R squared 0.995): 6.13 µM
EC90 ([5]; EC90 CI (lower) 1.689 uM, EC90 CI (upper) 2.244 uM, Hill slope -3.785, Maximum measured 107.412 %, Minimum measured 0.007 %, R squared 0.985): 6.21 µM
EC90 ([5]; EC90 CI (lower) […], EC90 CI (upper) 1.65 uM, Hill slope -1.956, Maximum measured 86.89 %, Minimum measured 0.152 %, R squared 0.926): 9.09 µM
